How the values were obtained:
[1] = target: T1, mitochondrial benzodiazepine receptor (MBR) (Rattus norvegicus, UniProt P16257); experiment: Binding assay of mitochondrial benzodiazepine receptor (MBR), [3H]4'-chlorodiazepam (Ro5-4864), rat kidney membrane-preparation; details: rat kidney membranes, [3H]4'-chlorodiazepam 0.5 nM, 0° C. for 150 minutes
T1 construct: from tissue; host or cells: kidney of male Wistar rats (crude membrane preparation)
Description: The binding assay of central-type benzodiazepine receptor (CBR) and the preparation of receptor membrane-preparation were carried out according to the partially modified method of Braestrup, C. et al. [see; Br. J. Psychiatry, 133, 249-260 (1978)] with a minor modification; the binding assay of mitochondrial benzodiazepine receptor (MBR) and the preparation of receptor membrane-preparation were carried out according to the method of Schoemaker, H [see; J. Pharmacol. Exp. Ther., 225, 61-69 (1983)] with a minor modification.
CBR and MBR membrane-preparations were prepared from forebrain (CBR) and kidney (MBR) of male Wistar strain rats according to the following procedure, respectively.
To the forebrain of rat, 20 volumes of ice-cold 0.32 M sucrose solution to wet-weight of the tissue (1:20, wet-weight/vol) was added and homogenized, and then the homogenate was centrifuged at 900×g for 10 minutes. The supernatant was centrifuged at 11,500×g for 20 minutes, a buffer I for the binding assay (50 mM Tris-hydrochloric acid buffer, pH 7.5) was added to the resultant precipitate, and the mixture was homogenized, and then it was centrifuged at 30,000×g for 10 minutes. The resulting precipitate was washed 3 times according to the same operation, suspended in the buffer I (1 g of wet-weight of tissue/10 ml) and used as a CBR membrane-preparation for the binding assay. The CBR membrane-preparation was stored at −80° C. until use, and on the day of the assay, it was thawed and suspended in the buffer for use. On the other hand, kidney of rat was homogenized in 20 volumes of ice-cold buffer II for the binding assay to wet-weight of the tissue (1:20, wet-weight/vol) (50 mM sodium phosphate-potassium phosphate buffer solution containing 100 mM sodium chloride, pH 7.4), and then filtrated through 4 layers of gauze, and the filtrate was centrifuged at 40,000×g for 20 minutes. The resulting precipitate was suspended in the buffer II (1 g of wet-weight of tissue/50 ml) and used as a MBR membrane-preparation for the binding assay.
As a labeled ligand and a non-labeled ligand, [^3H]flunitrazepam (final concentration: 1 nM) and diazepam (final concentration: 20 μM) were used respectively, for the CBR binding assay, and [^3H]4′-chlorodiazepam (Ro5-4864, chemical name: 7-chloro-1,3-dihydro-1-methyl-5-(4-chloro-phenyl)-2H-1,4-[…]) (final concentration: 0.5 nM) and diazepam (final concentration: 50 μM) were used respectively, for the MBR binding assay. The binding assay of CBR was carried out by incubating at 0° C. for 30 minutes, while that of MBR was at 0° C. for 150 minutes.
The receptor binding assay was carried out in the following procedure. The test compound which the concentration was known, a tritium labeled ligand, a receptor membrane-preparation and the buffer I or II for the binding assay were added to a 96-well microplate in the total volume was 0.2 ml, and when the receptor membrane-preparation was added, the reaction started. After the incubation, the labeled ligand binding to the receptor was filtrated through a filter plate (UNI FILTER-96GF/B, PerkinElmer, the U.S.) using a cell harvester (PerkinElmer, the U.S.) to stop the reaction. The filter was immediately washed 6 times with 0.3 ml of the ice-cold buffer [50 mM Tris-hydrochloric acid buffer (pH 7.7)]. After 30 μl of liquid scintillation cocktail (MICROSCINTI 20, PerkinElmer, the U.S.) was added to each well on the dried filter plate, the radioactivity was measured with a TopCount. The specific binding amount was obtained by subtracting the non-specific binding amount which was simultaneously measured in the presence of non-labeled ligand from the total binding amount. The concentration that the test compound could decrease the specific binding amount of the labeled ligand to 50% of the amount (IC50 value) was analyzed using nonlinear least-squares method.

SMILES	IC50 [1] [nM]	melting point
O=C(C1Cc2ccccc2N1c1ncccn1)N1CCCC(F)(F)C1 (racemic) [Example 48]	77	172 to 174 °C
COc1ccc2c(c1)N(c1ccc(=O)n(C)n1)C(C(=O)N1CCCC(C)C1)C2 (racemic) [Example 135]	13.5	182 to 184 °C
C[C@@H]1C[C@H](C)CN(C(=O)C2Cc3ccccc3N2c2ccc(F)cn2)C1 (relative stereo) [Example 10]	1.14	139 to 141 °C
C[C@@H]1C[C@H](C)CN(C(=O)[C@@H]2Cc3ccccc3N2c2nc3ccccc3o2)C1 [Example 18]	1.47	165 to 167 °C
C[C@H]1CCCN(C(=O)[C@@H]2Cc3ccccc3N2c2ccc(Cl)nn2)C1 [Example 35]	1.19	183 to 186 °C
CC1CC(C)CN(C(=O)C2Cc3ccccc3N2c2ccncn2)C1 (racemic) [Example 58]	4.31	107 to 109 °C
C=Cc1ccc2c(c1)C[C@@H](C(=O)N1CCC[C@H](C)C1)N2c1cccnn1 [Example 98]	44.3	103 to 106 °C
C[C@@H]1C[C@H](C)CN(C(=O)[C@@H]2Cc3ccccc3N2c2ccc([N+](=O)[O-])cn2)C1 [Example 30]	1.29	208 to 210 °C
C[C@H]1CCCN(C(=O)[C@@H]2Cc3ccccc3N2c2ccc(=O)n(CC3CCCCC3)n2)C1 [Example 77]	3.15	215 to 217 °C
C[C@@H]1CCCN(C(=O)[C@@H]2Cc3ccccc3N2c2cccnn2)C1 [Example 62]	12.2	169 to 172 °C
C[C@H]1CCCN(C(=O)[C@@H]2Cc3cc(Cl)ccc3N2c2cccnn2)C1 [Example 91]	2.31	175 to 177 °C
C[C@H]1CCCN(C(=O)[C@@H]2Cc3ccccc3N2c2ccc(=O)n(CCF)n2)C1 [Example 128, (S)-1-[1-(2-fluoroethyl)-6-oxo-1,6-dihydropyridazin-3-yl]-2-[[(S)-3-methylpiperidin-1-yl]carbonyl]indoline]	3.91	229 to 230 °C
C[C@@H]1C[C@H](C)CN(C(=O)[C@@H]2Cc3ccccc3N2c2ccc(Cl)nn2)C1 [Example 36]	1.28	182 to 184 °C
COc1ccc(N2c3ccccc3C[C@H]2C(=O)N2C[C@H](C)C[C@H](C)C2)nn1 [Example 39]	1.71	173 to 175 °C
C[C@H]1CCCN(C(=O)[C@@H]2Cc3ccccc3N2c2ccc3nccn3n2)C1 [Example 78]	2.53	190 to 193 °C
C[C@@H]1C[C@H](C)CN(C(=O)[C@@H]2Cc3ccccc3N2c2nc3ccccc3s2)C1 [Example 15]	1.46	170 to 173 °C
C[C@@H]1C[C@H](C)CN(C(=O)[C@@H]2Cc3ccccc3N2c2nccc3ccccc23)C1 [Example 13]	2.08	173 to 175 °C
Cc1ccc(N2c3ccccc3C[C@H]2C(=O)N2CCC[C@H](C)C2)nn1 [Example 37]	3.23	192 to 194 °C
C[C@@H]1C[C@H](C)CN(C(=O)[C@H]2Cc3ccccc3N2c2ncccn2)C1 [Example 42]	14.3	159 to 160 °C
C[C@@H]1C[C@H](C)CN(C(=O)[C@@H]2Cc3ccccc3N2c2cncc(Cl)n2)C1 [Example 21]	1.23	174 to 175 °C
COc1ccc2c(c1)CC(C(=O)N1CCCC(C)C1)N2c1ccc(=O)n(C)n1 (racemic) [Example 134]	33.8	248 to 250 °C
C[C@H]1CCCN(C(=O)[C@@H]2Cc3ccccc3N2c2ccc(=O)n(CC(=O)c3ccccc3)n2)C1 (hydrate or solvate) [Example 124]	–	255 °C (dec.)
CCCCn1nc(N2c3ccccc3C[C@H]2C(=O)N2CCC[C@H](C)C2)ccc1=O [Example 74]	–	186 to 188 °C

Source: US20080221114A1, “2-(Cyclic Aminocarbonyl) Indoline Derivative and Medicinal Composition Containing the Same” (priority 2005, published 2008)
